Data published in patent US10676406B2, “Hopanoids producing bacteria and related biofertilizers, compositions, methods and systems” (CALIFORNIA INSTITUTE OF TECHNOLOGY, priority 2015, dated 2020).

Tests used:
[1] = tested on: B. diazoefficiens WT; assay: MIC of polymyxin B by E-test; assay type: cell-based, Bradyrhizobium diazoefficiens; details: E-test strips 0.064-1024 μg/mL, 30° C., 7 days
Procedure: (§1) Disk diffusion assays were used to quantify growth under oxidative, acidic and detergent stresses. For this, 4 day-old cultures of B. diazoefficiens strains grown in yeast extract-mannitol (YM) medium were washed and adjusted to an OD600 of 1.2 ml bacterial suspensions were then mixed with 100 ml of 42° C. pre-warmed YM soft agar (0.8% agar) and 5 ml portions of this mixture were poured on solid YM. Filter disks were placed at the center of the plates, and 5 μl of 5.5 M H2O2, 2 M HCl or SDS (10% w/v), were deposited on the disks. The diameters of growth inhibition areas were measured after incubation at 30° C. for 5 days.
(§2) The MIC of polymyxin B was determined by the E-test method using disk diffusion assay as described above. Strips containing a gradient of polymyxin B ranging from 0.064-1024 μg/mL (Biomérieux, Marcy-l'étoile, France) were placed in the center of plates, which were incubated at 30° C. for 7 days before recording the results. The experiment was done in triplicates.

[2] = tested on: B. diazoefficiens ΔhpnH; assay: MIC of polymyxin B by E-test; assay type: cell-based, Bradyrhizobium diazoefficiens
Procedure: as §1, §2

polymyxin B
MIC for polymyxin B [1]: 512 µg/mL | MIC for polymyxin B ([2]; E-test strips 0.064-1024 μg/mL, 30° C., 7 days): 48 µg/mL | fold lower MIC for polymyxin B in ΔhpnH than WT ([2]; ΔhpnH versus WT): 10 fold
